Laboratory results published in patent US6066628A, “Non-iron metalloporphyrins and methods of use” (Emory University, priority 1998, dated 2000).

How the values were obtained:
[1] = system: N. meningitidis; assay: Disc diffusion sensitivity test; assay type: cell-based; settings: disc ~50 μg MP
[2] = system: S. marcescens; assay: Disc diffusion sensitivity test; assay type: cell-based, Serratia marcescens; settings: S. marcescens; disc ~50 μg MP
[3] = system: E. coli; assay: Disc diffusion sensitivity test; assay type: cell-based, Escherichia coli; settings: E. coli; disc ~50 μg MP
[4] = system: P. mirabills; assay: Disc diffusion sensitivity test; assay type: cell-based, Proteus mirabilis; settings: P. mirabilis; disc ~50 μg MP
[5] = system: K. pneumoniae; assay: Disc diffusion sensitivity test; assay type: cell-based, Klebsiella pneumoniae; settings: K. pneumoniae; disc ~50 μg MP
[6] = system: K. oxytoca; assay: Disc diffusion sensitivity test; assay type: cell-based, Klebsiella oxytoca; settings: K. oxytoca; disc ~50 μg MP
[7] = system: Ps. aeruginosa; assay: Disc diffusion sensitivity test; assay type: cell-based, Pseudomonas aeruginosa; settings: disc ~50 μg MP; further: key: -: resistant; N: not determined
[8] = system: C. freundii; assay: Disc diffusion sensitivity test; assay type: cell-based, Citrobacter freundii; settings: C. freundii; disc ~50 μg MP
[9] = system: E. aerogenes; assay: Disc diffusion sensitivity test; assay type: cell-based, Enterobacter aerogenes; settings: E. aerogenes; disc ~50 μg MP
[10] = system: F. menigosepticum; assay: Disc diffusion sensitivity test; assay type: cell-based, Flavobacterium meningosepticum; settings: F. meningosepticum; disc ~50 μg MP
[11] = system: S. aureus; assay: Disc diffusion sensitivity test; assay type: cell-based, Staphylococcus aureus; settings: for diameter (mm) of the inhibition zone: S. aureus, disc ~50 μg MP
[12] = system: E. faecalis; assay: Disc diffusion sensitivity test; assay type: cell-based, Enterococcus faecalis; settings: disc ~50 μg MP; further: key: -: resistant; N: not determined
[13] = system: M. bovis; assay type: cell-based, Mycobacterium bovis; settings: disc ~50 μg MP
[14] = system: Y. enterocolitica; assay: microbe, parasite or virus in culture; assay type: cell-based
[15] = system: S. aureus; assay type: cell-based, Staphylococcus aureus; settings: for Minimal inhibitory concentration (MIC): methicillin-resistant S. aureus IR219, Nutrient broth (Table 2); for antibacterial activity: S. aureus
[16] = system: M. smegmatis; assay type: cell-based, Mycobacterium smegmatis; settings: M. smegmatis LR222; LB + Tween 80 (Table 2)
[17] = system: Y. enterocolitica; assay: Disc diffusion sensitivity test; assay type: cell-based; settings: disc ~50 μg MP
[18] = system: B. subtilis; assay: Disc diffusion sensitivity test; assay type: cell-based, Bacillus subtilis; settings: for diameter (mm) of the inhibition zone: B. subtilis, disc ~50 μg MP
[19] = system: S. pyogenes A; assay: Disc diffusion sensitivity test; assay type: cell-based, Streptococcus pyogenes; settings: disc ~50 μg MP
[20] = system: M. smegmatis; assay: Disc diffusion sensitivity test; assay type: cell-based, Mycobacterium smegmatis; settings: disc ~50 μg MP
[21] = system: S. crevisieae; assay: Disc diffusion sensitivity test; assay type: cell-based, Saccharomyces cerevisiae; settings: S. cerevisiae; disc ~50 μg MP
[22] = system: M tuber. H37Rv; assay: Disc diffusion sensitivity test; assay type: cell-based, Mycobacterium tuberculosis; settings: disc ~50 μg MP
[23] = system: M tuber. H37Pa; assay: Disc diffusion sensitivity test; assay type: cell-based, Mycobacterium tuberculosis; settings: disc ~50 μg MP
[24] = system: bacteria; assay type: cell-based; settings: listed as Manganese (+2)-meso-tetra-4-sulfonatophenyl porphine
[25] = system: Y. enterocolitica; assay: Minimal bactericidal concentration; assay type: cell-based; settings: reduces plating efficiency more than 99.9%; minimal exposure to light
[26] = system: S. aureus; assay: Minimal bactericidal concentration; assay type: cell-based, Staphylococcus aureus; settings: reduces plating efficiency more than 99.9%; minimal exposure to light
Procedure: Minimal bactericidal concentrations (MBCs) were determined essentially the same way as MICs except that the amount of killing with a particular concentration of porphyrin derivative was determined by plating on solid microbiological media (LB plates or LB+Tween 80). Media were solidified by the incorporation of 1.5% agar (Difco Laboratories). Concentrations of porphyrins that produced 99.9% reduction in bacterial counts were considered bactericidal [Hindler et al. (1994) supra].
MBC were determined by plating bacterial cultures that have been incubate
in the presence of MPs at concentrations higher than MIC. MBC was defined
as a concentration of a particular MP which reduces the plating efficienc
more than 99.9%. Experiments were done with minimal exposure to light
(addition of porphyrins waa done in the presence of artifical light).

[27] = system: M. smegmatis; assay: Minimal bactericidal concentration; assay type: cell-based, Mycobacterium smegmatis; settings: reduces plating efficiency more than 99.9%; minimal exposure to light

Structure (SMILES)	diameter (mm) of the inhibition zone [1]	diameter (mm) of the inhibition zone [2]	diameter (mm) of the inhibition zone [3]	diameter (mm) of the inhibition zone [4]	diameter (mm) of the inhibition zone [5]	diameter (mm) of the inhibition zone [6]	diameter (mm) of the inhibition zone [7]	diameter (mm) of the inhibition zone [8]	diameter (mm) of the inhibition zone [9]	diameter (mm) of the inhibition zone [10]	diameter (mm) of the inhibition zone [11]	diameter (mm) of the inhibition zone [12]	diameter (mm) of the inhibition zone [13]	Minimal inhibitory concentration (MIC) [14]	Minimal inhibitory concentration (MIC) [15] [µg/mL]	Minimal inhibitory concentration (MIC) [16] [µg/mL]	diameter (mm) of the inhibition zone [17]	diameter (mm) of the inhibition zone [18]	diameter (mm) of the inhibition zone [20]	diameter (mm) of the inhibition zone [21]	further results
C=CC1=C(C)c2cc3[n-]c(cc4nc(cc5[n-]c(cc1n2)c(C)c5CCC(=O)O)C(CCC(=O)O)=C4C)c(C)c3C=C.[Pd+2] [Pd-PPIX]	-	-	-	-	-	-	-	-	-	-	-	-	-	> 40	50	20					
C=CC1=C(C)c2cc3[n-]c(cc4nc(cc5[n-]c(cc1n2)c(C)c5CCC(=O)O)C(CCC(=O)O)=C4C)c(C)c3C=C.[Cr+2] [Cr-PPIX]	-	-					-				10 mm	-	-	20	> 40	20	-	-	-	-	diameter (mm) of the inhibition zone [19]: -
C=CC1=C(C)C2=Cc3c(C=C)c(C)c4[n]3[Mg][n]3c(c(C)c(CCC(=O)O)c3=CC3=NC(=C4)C(C)=C3CCC(=O)O)=CC1=N2 [Mg-PPIX]	-		-	-	-	-	-	-	-	-		-					-				zone of inhibition at 50 µg/disc ([11]; Staphylococcus aureus, read-out: diameter (mm) of the inhibition zone): 15 mm; zone of inhibition at 50 µg/disc ([18]; Bacillus subtilis, read-out: diameter (mm) of the inhibition zone): 15 mm; MIC ([15]; Staphylococcus aureus, read-out: Minimal inhibitory concentration (MIC)): > 10 µg/mL
O=S(=O)([O-])c1ccc(-c2c3nc(c(-c4ccc(S(=O)(=O)[O-])cc4)c4ccc([n-]4)c(-c4ccc(S(=O)(=O)[O-])cc4)c4nc(c(-c5ccc(S(=O)(=O)[O-])cc5)c5ccc2[n-]5)C=C4)C=C3)cc1.[Cl-].[Mn+3] [Mn-meso, Mnmeso-tetra(4-sulfonatophenyl)-porphine chloride]	-	-	-	-	-	-	-	-	-	-	-						-	-			diameter (mm) of the inhibition zone [22]: -; diameter (mm) of the inhibition zone [23]: -; antibacterial activity [24]: inactive
C=CC1=C(C)c2cc3[n-]c(cc4nc(cc5[n-]c(cc1n2)c(C)c5CCC(=O)O)C(CCC(=O)O)=C4C)c(C)c3C=C.[Ti+2] [Ti-PPIX]	-		-	-	-	-	-	-	-	-	-	-		> 40	40	> 40	-	12 mm			
C=CC1=C(C)c2cc3[n-]c(cc4nc(cc5[n-]c(cc1n2)c(C)c5CCC(=O)O)C(CCC(=O)O)=C4C)c(C)c3C=C.[Ru+2] [Ru-PPIX]	11 mm	-					-			-	12 mm	-	-	> 40	5	20	-	-	-	-	antibacterial activity [15]: some activity; Minimal bactericidal concentration (MBC) [25]: > 40; Minimal bactericidal concentration (MBC) [26]: 10; Minimal bactericidal concentration (MBC) [27]: > 20
C=CC1=C(C)c2cc3[n-]c(cc4nc(cc5[n-]c(cc1n2)c(C)c5C=C)C(C)=C4CCC(=O)O)c(CCC(=O)O)c3C.[Zn+2] [Zn-PPIX]	10 mm	-					-				12 mm	-	-	> 40	3.2	20	-	-	-	-	antibacterial activity [15]: some activity
C=Cc1c2[n-]c(c1C)/C=c1\[n-]/c(c(C)c1C=C)=C\c1[n-]c(c(CCC(=O)O)c1C)C=c1[n-]/c(c(C)c1CCC(=O)O)=C\2.[Sn+4] [Sn-PPIX, tin-protoporphyrin IX]	-	-					-				-	-	-	20	> 40	20	-	-	-	-	diameter (mm) of the inhibition zone [19]: -
C=Cc1c(C)c2cc3[nH]c(cc4nc(cc5nc(cc1[nH]2)C(C)=C5CCC(=O)[O-])C(CCC(=O)[O-])=C4C)c(C)c3C=C.[Co+2] [Co-PPIX]	-	-					-				15 mm	-	-	20	40	20	-	-	-	18 mm	diameter (mm) of the inhibition zone [19]: -
